In US20260023004A1, “SIGNAL ENHANCEMENT OF RESONANT SENSOR FOR CELL MEASUREMENTS” (lowa State University Research Foundation, Inc., priority 2022, published 2026):

Test system: HeLa cells
Test: Inhibition of HeLa cell growth monitored by resonant sensor frequency shift and microscope images
Format: cell-based
Conditions: Niclosamide at 15 μM in culture media
Procedure: To investigate the inhibition effect of cell growth on the sensor response, HeLa cells were first grown until a drastic resonant frequency shift was observed. FIG. 11 is a plot of resonant frequency as a function of time shown as curve 537. Four times are identified as 5, 6, 7, and 8. FIG. 12 is a cell image at time 5 of FIG. 11. Niclosamide was introduced at time 6 of FIG. 11 into the culture media at 15 μM. […] FIG. 13 is a cell image at time 6 of FIG. 11. FIG. 14 is a cell image at time 7 of FIG. 11. FIG. 15 is a cell image at time 8 of FIG. 11.

O=C(Nc1ccc([N+](=O)[O-])cc1Cl)c1cc(Cl)ccc1O [Niclosamide]
resonant frequency shift of sensor after introducing drug (HeLa cells grown until drastic resonant frequency shift): almost an instantaneous stop in the resonant frequency shift | cell growth after introducing the drug (microscopic images) (HeLa cells): stop of cell growth
